Measurements published in patent US20090118286A1, “Heterobicyclic Acrylamides” (Bayer Cropscience AG, priority 2005, published 2009).

Experiment: log P determination by HPLC (EEC Directive 79/831 Annex V.A8, gradient method)
Format: physicochemical

| Compound | Physical data (logP) | Physical data: logP | other results |
| --- | --- | --- | --- |
| CCCC(C)NC(=O)/C=C/c1c(-c2cccc(Cl)c2)nc2sc(C(F)(F)F)nn12 (stereo not shown) [Example 0088] | 4.37 | – | – |
| CCC(C)NC(=O)/C=C/c1c(-c2ccccc2Cl)nc2sc(-c3ccc(C(F)(F)F)cc3)nn12 (stereo not shown) [Example 0847] | – | 4.33 | – |
| CC(C)(C)NC(=O)/C=C/c1c(-c2cccc(Cl)c2)nc2sc(C(F)(F)F)nn12 [Example 0080] | 4.27 | – | – |
| CCC(NC(=O)C=Cc1c(-c2ccccc2C)nc2sc(C(F)(F)F)nn12)C1CCCCC1 (stereo not shown) [Example 0267] | – | – | Physical data: log P: 4.92 |
| CC(C)(NC(=O)/C=C/c1c(-c2ccc(F)cc2Cl)nc2sc(C(F)(F)F)nn12)C(F)(F)F [Example 0915] | – | 4.11 | – |
| CCC(NC(=O)C=Cc1c(-c2ccccc2C)nc2sc(C(F)(F)F)nn12)c1ccccc1 (stereo not shown) [Example 0261] | – | – | Physical data: log P: 4.18 |
| CC(C)NC(=O)/C=C/c1c(-c2ccccc2Cl)nc2sc(C(F)(F)F)cn12 [Example 0906] | – | 3.23 | – |
| CC(COc1ccccc1)NC(=O)/C=C/c1c(-c2ccc(Cl)cc2Cl)nc2sc(C(F)(F)F)nn12 (stereo not shown) [Example 0546] | – | – | Physical data: log P: 4.56 |
| O=C(/C=C/c1c(-c2ccccc2Cl)nc2sc(-c3ccc(C(F)(F)F)cc3)nn12)NC1CCCC1 [Example 0853] | – | 4.44 | – |
| Cc1cn2c(/C=C/C(=O)NC3CCC3)c(-c3ccccc3Cl)nc2s1 [Example 0874] | – | 2.48 | – |
| CCNC(=O)/C=C/c1c(-c2ccc(Cl)cc2)nc2sc(C(F)(F)F)nn12 [Example 0006] | 3.25 | – | – |
| CN(C)C(=O)/C=C/c1c(-c2ccc(Cl)cc2Cl)nc2sc(C(F)(F)F)nn12 [Example 0568] | – | – | Physical data: log P: 3.46 |
| CC(C)(C)c1nn2c(/C=C/C(=O)NC3CCCC3)c(-c3ccccc3Cl)nc2s1 [Example 0809] | – | 4.12 | – |
| Cc1csc2nc(-c3ccccc3Cl)c(/C=C/C(=O)NC3CCCC3)n12 [Example 0897] | – | 2.46 | – |
| O=C(/C=C/c1c(-c2ccc(Cl)cc2)nc2sc(C(F)(F)F)nn12)NCC1CC1 [Example 0015] | 3.72 | – | – |
| O=C(/C=C/c1c(-c2ccc(Cl)cc2)nc2sc(C(F)(F)F)nn12)NOCC1CC1 [Example 0060] | 3.59 | – | – |
| CC(C)NC(=O)/C=C/c1c(-c2cccc(Cl)c2)nc2sc(C(F)(F)F)nn12 [Example 0078] | 3.67 | – | – |
| CC(NC(=O)/C=C/c1c(-c2ccc(F)cc2Cl)nc2sc(C(F)(F)C(F)(F)F)nn12)C(F)(F)F (racemic) [Example 0974] | – | 4.19 | – |
| CCC(CC)NC(=O)/C=C/c1c(-c2ccc(Cl)cc2Cl)nc2sc(C(F)(F)F)nn12 [Example 0567] | – | – | Physical data: log P: 4.32 |
| CNC(=O)/C=C/c1c(-c2ccc(Cl)cc2)nc2sc(C(F)(F)F)nn12 [Example 0005] | 2.88 | – | – |
| O=C(/C=C/c1c(-c2ccc(F)cc2)nc2sc(C(F)(F)F)nn12)NC1CCCC1 [Example 0306] | – | – | Physical data: log P: 3.63 |
| O=C(/C=C/c1c(-c2ccc(F)cc2Cl)nc2sc(C(F)(F)F)nn12)NCCCC(F)(F)F [Example 0912] | – | 3.75 | – |
| CC(C)(C)c1nn2c(/C=C/C(=O)NCC(F)(F)C(F)(F)F)c(-c3ccccc3Cl)nc2s1 [Example 0814] | – | 4.08 | – |
| Cc1ccccc1-c1nc2sc(C(F)(F)F)nn2c1/C=C/C(=O)NC1CCC1 [Example 0234] | – | – | Physical data: log P: 3.41 |
| O=C(O)/C=C/c1c(-c2ccc(Oc3ccc(Cl)cc3)cc2)nc2sc(C(F)(F)F)nn12 [VA124] | 4.22 | – | – |
| COCc1nn2c(C=CC(=O)NC(C(C)C)C(F)(F)F)c(-c3ccccc3Cl)nc2s1 (stereo not shown) [Example 0818] | – | 3.54 | – |

| Compound | Physical data (logP) | Physical data: logP | other results |
| --- | --- | --- | --- |
| O=C(/C=C/c1c(-c2ccccc2Cl)nc2sc(C(F)(F)F)nn12)NC1CCCCC1 [Example 0155] | 3.9 | – | – |
| CCCC(C)NC(=O)/C=C/c1c(-c2ccc(OC)c(OC)c2)nc2sc(C(F)(F)F)nn12 (stereo not shown) [Example 0662] | – | 3.5 | – |
| CC(C)NC(=O)/C=C/c1c(-c2ccc(Cl)nc2)nc2sc(C(F)(F)F)nn12 [Example 0933] | – | 2.85 | – |
| Cc1cn2c(/C=C/C(=O)NCCC(C)C)c(-c3ccccc3Cl)nc2s1 [Example 0864] | – | 3 | – |
| COCC(C)NC(=O)/C=C/c1c(-c2ccccc2Cl)nc2sc(C(F)(F)F)nn12 (racemic) [Example 0169] | 2.99 | – | – |
| O=Cc1c(-c2ccccc2Cl)nc2scnn12 [IVA110] | 1.79 | – | – |
| Cc1csc2nc(-c3ccccc3Cl)c(/C=C/C(=O)NC3CCCCC3)n12 [Example 0898] | – | 2.74 | – |
| COCc1nn2c(/C=C/C(=O)NCC(F)(F)F)c(-c3ccccc3Cl)nc2s1 [Example 0822] | – | 2.72 | – |
| CC(COc1ccccc1)NC(=O)/C=C/c1c(-c2ccc(F)cc2)nc2sc(C(F)(F)F)nn12 (stereo not shown) [Example 0336] | – | – | Physical data: log P: 4.13 |
| Cc1cn2c(/C=C/C(=O)NCC(F)(F)C(F)(F)F)c(-c3ccccc3Cl)nc2s1 [Example 0880] | – | 3.09 | – |
| Cc1csc2nc(-c3ccccc3Cl)c(/C=C/C(=O)Nc3ccc(OC(F)(F)F)cc3)n12 [Example 0900] | – | 3.66 | – |
| Cc1cn2c(C=CC(=O)NC(C(C)C)C(F)(F)F)c(-c3ccccc3Cl)nc2s1 (stereo not shown) [Example 0862] | – | 3.45 | – |
| CCC(CC)NC(=O)/C=C/c1c(-c2ccc(Cl)cc2)nc2sc(C(F)(F)F)nn12 [Example 0064] | 4.23 | – | – |
| Cc1cn2c(/C=C/C(=O)NC(C)C(C)(C)C)c(-c3ccccc3Cl)nc2s1 (stereo not shown) [Example 0870] | – | 3.17 | – |
| O=C(/C=C/c1c(-c2cccc(Cl)c2)nc2sc(C(F)(F)F)nn12)NC1CCCCC1 [Example 0085] | 4.46 | – | – |
| CCC(C)NC(=O)/C=C/c1c(-c2ccccc2Cl)nc2sc(C)cn12 (stereo not shown) [Example 0869] | – | 2.54 | – |
| O=Cc1c(-c2ccc(F)cc2Cl)nc2sc(C(F)(F)C(F)(F)F)nn12 [IVA112] | 3.63 | – | – |
| Cc1csc2nc(-c3ccccc3Cl)c(/C=C/C(=O)NC3CCC(C(F)(F)F)CC3)n12 (stereo not shown) [Example 0887] | – | 3.04 | – |
| CC(NC(=O)/C=C/c1c(-c2ccccc2Cl)nc2sc(C(F)(F)F)nn12)C(F)(F)F (single isomer, unassigned) [Example 0184] | 3.63 | – | – |
| CC(C)C(NC(=O)C=Cc1c(-c2nccs2)nc2sc(C(F)(F)C(F)(F)F)nn12)C(F)(F)F (stereo not shown) [Example 0988] | – | 4.35 | – |
| O=C(C=Cc1c(-c2ccc(F)cc2Cl)nc2sc(C(F)(F)F)nn12)NC(CC(F)(F)F)c1ccccc1 (stereo not shown) [Example 0609] | – | – | Physical data: log P: 4.25 |
| O=C(/C=C/c1c(-c2ccc(Cl)cc2Cl)nc2sc(C(F)(F)F)nn12)NOCC1CC1 [Example 0563] | – | – | Physical data: log P: 3.68 |
| O=C(/C=C/c1c(-c2cccc(C(F)(F)F)c2)nc2sc(C(F)(F)F)nn12)NC1CCCC1 [Example 0377] | – | – | Physical data: log P: 4.27 |
| O=C(/C=C/c1c(-c2ccccc2Cl)nc2sc(C(F)(F)F)nn12)NCc1ccc(F)cc1 [Example 0191] | 3.7 | – | – |
| CC(NC(=O)/C=C/c1c(-c2ccc(Cl)nc2)nc2sc(C(F)(F)F)nn12)C(F)(F)F (racemic) [Example 0935] | – | 3.32 | – |
| CC(NC(=O)/C=C/c1c(-c2ccccc2Cl)nc2sc(-c3ccc(C(F)(F)F)cc3)nn12)C(F)(F)F (stereo not shown) [Example 0839] | – | 4.37 | – |
